Assay [1] has as its target T1, Human Vitamin D3 Receptor (VDR) (Homo sapiens, UniProt P11473).
T1 construct: purchased Invitrogen Corporation
T1 sequence (P11473 1-427): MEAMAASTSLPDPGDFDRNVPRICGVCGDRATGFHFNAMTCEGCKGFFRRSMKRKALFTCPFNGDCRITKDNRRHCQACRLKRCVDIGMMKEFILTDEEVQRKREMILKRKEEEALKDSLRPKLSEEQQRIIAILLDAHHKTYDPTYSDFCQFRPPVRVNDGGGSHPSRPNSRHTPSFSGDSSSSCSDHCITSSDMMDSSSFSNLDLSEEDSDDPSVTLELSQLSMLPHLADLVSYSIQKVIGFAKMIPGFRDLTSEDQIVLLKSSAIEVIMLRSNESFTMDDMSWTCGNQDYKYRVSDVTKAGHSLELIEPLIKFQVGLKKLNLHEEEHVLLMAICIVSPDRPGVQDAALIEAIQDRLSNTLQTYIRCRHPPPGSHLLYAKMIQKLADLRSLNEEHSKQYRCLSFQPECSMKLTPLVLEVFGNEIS
Briefly: Binding affinity to human vitamin D3 receptor (Polarscreen Vitamin D Receptor Competitor assay, Red; fluorescence polarization). The conditions noted are these: ratio of IC50 relative to IC50 of 1α,25-dihydroxyvitamin D3. The procedure:
Binding Affinity to Human Vitamin D3 Receptor (VDR) This binding affinity was assessed by a VDR affinity measurement kit (Polarscreen™ Vitamin D Receptor Competitor assay, Red; Invitrogen Corporation). The compounds of the present invention or 1α,25-dihydroxyvitamin D3 at various concentrations in DTT-containing buffer (pH 7.5) were mixed with fluorescence-labeled VDR ligand-human VTR complex in DTT-containing buffer (pH 7.5). The degree of polarization of the resulting solution was measured after the incubation of the solution at room temperature. The polarization values were plotted against the concentration of the test compounds, IC50 (the concentration of the test compounds at which the polarized value is reduced to 50%) was determined.
(Polarisation of emitted light reports the rotation of a fluorescent probe.)

Assay [2] has as its target T2, human VDR (Homo sapiens, UniProt P11473).
T2 construct: expressed in transfected cells; host or cells: HOS cells (human osteosarcoma, ATCC), pcDNA3 expression vector, Lipofectamine 2000
T2 sequence (P11473 1-427): T1 sequence (P11473 1-427)
Briefly: Vitamin D3 receptor-antagonist activity: human osteocalcin promoter luciferase reporter in HOS cells transfected with human VDR and human RXR. It is filed as cell-based. Conditions: for Antagonist specific activity against TEI-9647 (%): IC50 of test compound with respect to IC50 of TEI-9647 in each experiment; for pIC50: luciferase activity in HOS cells, with 1α,25-dihydroxyvitamin D3 1×10^−8 M, 24 hours. The text has this: Vitamin D3 Receptor-Antagonist Activity in Terms of the Transcription Activity in Human Osteocalcin by 1α,25-dihydroxyvitamin D3 as a Marker
(1) A pGL3 vector (Promega Corp.) was used as a reporter vector. The promoter sequence of the human osteocalcin gene, which was obtained by a known method (Ozono et al., J. Biol. Chem., 265:21881-21888, 1990), was cloned from cDNA acquired from HOS cells (obtained from ATCC) and inserted into the upstream of the luciferase gene on the reporter vector. An expression vector was constructed by inserting a DNA sequence encoding human VDR and human RXR into a pcDNA3 vector (Invitrogen Corp). The HOS cells were incubated in a DMEM medium supplemented with 10% FBS at 37° C. in the presence of 5% CO2, and subcultivated every 2 or 3 days.
(2) Cells being subcultivated were collected by centrifugation and re-suspended in a serum and phenol red-free DMEM medium at 4×10^5 cells/mL. The re-suspension of cells was plated in a 96 well plate at 0.1 mL/well. In this system, various vectors described in (1) were added at 0.05 mL/well with Lipofectamin 2000 (Invitrogen Corp.). After the incubation for 3 hours at 37° C., 1α,25-dihydroxyvitamin D3 and the compounds of the present invention in various concentrations or TEI-9647 (note) as a control (the final concentration: 1×10^−8 M for 1α,25-dihydroxyvitamin D3, and 1×10^−6M and 1×10^−12M for the compounds of the present invention and TEI-9647) were added to each well. After incubation at 37° C. for 24 hours, the medium was removed, the cells were washed with PBS(−) once, and measured for the luciferase activity using a Dual Glo-Luciferase Assay kit (Promega Corp.) by luminometer (Berthold Corp.). The resulting luciferase values were plotted against the concentration of the test compounds and IC50 was determined as the concentration of the test compound at which the luciferase value was inhibited by 50%. Furthermore, to compare the intensities of activity among experiments, the IC50 value of the test compounds with respect to the IC50 value of […] in each experiment was calculated as the antagonist specific activity (%) against TEI-9647.
A general note: Reporter assays use an easily measured gene product as a stand-in for the process of interest.

Assay [3] has as its system HL-60 cells. Briefly: Vitamin D3 receptor-antagonist effect: inhibition of 1α,25-dihydroxyvitamin D3-induced differentiation of HL-60 (NBT reduction activity). It counts as cell-based. The conditions noted are these: Homo sapiens, 96 h; NBT-positive HL-60 cells, co-treatment with 1α,25-dihydroxyvitamin D3 1×10^−8 M, 4 days. The text has this: Vitamin D3 Receptor-Antagonist Effect in Terms of Cellular Differentiation-Inducing Activity of 1α,25-dihydroxyvitamin D3 in HL-60 as a Marker
(1) A HL-60 cell line purchased from a cell bank (Japanese Cancer Research Resource Bank, Cell number: JCRB0085) was used. The cells were frozen for storage as a frozen storage stock to prevent cell characteristic changes due to successive cultivations. The cells were defrosted prior to the initiation of the experiment, and those which started successive culturing were used in the experiment. Cells subcultured for one month to a half year were used for the experiment. The successive culturing was carried out by diluting the cells at a ratio of about 1/100 (1-2×10^4 cells/mL) in a fresh medium after the collection of cells from a cell suspension by centrifugation. RPMI-1640 supplemented with 10% fetal bovine serum was used as the culture medium.
(2) The subcultured cells by the procedure described in (1) were collected by centrifugation and re-suspended in the medium at 5×10^3 cells/mL, and the cells were plated into a 24-well culture dish at 1 mL/well. To this system, a solution of 1α,25-dihydroxyvitamin D3 at a concentration of 1×10^−5 M and the compounds of the present invention in a range of […] to 3×10^−3 M in ethanol, respectively, were added at 1 μL per well (the final concentration: 1×10^−8 M for 1α,25-dihydroxyvitamin D3, and 1×10^−9 M to 3×10^−6 M for the compounds of the present invention). Ethanol was added at 1 μL per well as a control. After the plate was incubated at 37° C. for 4 days in the presence of 5% CO2, the cells were separated and collected by centrifugation.
(3) The induction of nitroblue tetrazolium (hereinafter NBT) reduction activity was used as a marker for cell differentiation-inducing activity of HL-60 cells. The measurement of NBT reduction activity was carried out according to the following procedure. Specifically, cells collected by centrifugation were re-suspended in a fresh medium. Then 0.1% of NBT and 12-O-tetradecanoylphorbor-13-acetate at a final concentration of 100 ng/mL were added to the cell suspension and the mixture was incubated at 37° C. for 25 minutes. Then the cytospin smears were prepared and stained with Kernechtrot after air-drying. The ratio of positive cells expressing NBT reduction activity was determined under optical microscopy. Percentage ratios of the ratio of NBT-positive cells in a simultaneous treatment with 1α,25-dihydroxyvitamin D3 (1×10^−8 M) and a compound of the present invention (1×10^−9M and 3×10^−6 M) over the ratio of the NBT-positive cells in a single treatment with 1α,25-dihydroxyvitamin D3 (1×10^−8 M) were plotted against the treating concentration of the compounds of the present invention. […]

Each structure is given as a SMILES string. pIC50: −log10 of the molar value.

For the compound `C=C1/C(=C\C=C2/CCC[C@]3(C)[C@@H]([C@H](C)CC4CC(C)(O)C(=O)N4Cc4cc(OCC)cc(OCC)c4)CC[C@@H]23)C[C@@H](O)[C@H](C)[C@@H]1O` (single isomer, unassigned) [Compound No. 41c, 2α-methyl-1α,25-dihydroxyvitamin D3-26,23-lactam-N-(3,5-diethoxybenzyl)], in assay [1], the “VDR affinity (%)” value is reported as 30%. In assay [2], the “Antagonist specific activity against TEI-9647 (%)” value (“Antagonist specific activity … (%)” for short) was 17.8% and the pIC50 was 7.28.
Regarding `C=C1/C(=C\C=C2/CCC[C@]3(C)[C@@H]([C@H](C)CC4CC(C)(O)C(=O)N4CCc4ccccc4)CC[C@@H]23)C[C@@H](O)[C@H](CCCO)[C@@H]1O` (stereo partly drawn) [Compound No. 12b, 2α-(3-hydroxypropyl)-1α,25-dihydroxyvitamin D3-26,23-lactam-N-(2-phenethyl)], the pIC50 in assay [3] was 6.77.
Take `C=C1/C(=C\C=C2/CCC[C@]3(C)[C@@H]([C@H](C)CC4CC(C)(O)C(=O)N4Cc4cc(OCC)cc(OCC)c4)CC[C@@H]23)C[C@@H](O)[C@H](C)[C@@H]1O` (stereo partly drawn) [Compound No. 41a, 2α-methyl-1α,25-dihydroxyvitamin D3-26,23-lactam-N-(3,5-diethoxybenzyl)]: in assay [1], the “VDR affinity (%)” value was found to be 31%.
Turning to `C=C1/C(=C\C=C2/CCC[C@@]3(C)C2CC[C@@H]3[C@H](C)CC2CC(C)(O)C(=O)N2Cc2cc(OCC)cc(OCC)c2)C[C@@H](O)[C@H](CCCO)[C@@H]1O` (stereo partly drawn) [Compound No. 42c, 2α-(3-hydroxypropyl)-1α,25-dihydroxyvitamin D2-26,23-lactam-N-(3,5-diethoxybenzyl)], in assay [2], the “Antagonist specific activity … (%)” value is 6.1% and the pIC50 is 7.12.
`C=C1/C(=C\C=C2/CCC[C@]3(C)[C@@H]([C@H](C)CC4CC(C)(O)C(=O)N4Cc4cc(OCC)cc(OCC)c4)CC[C@@H]23)C[C@@H](O)[C@H](OCCCO)[C@@H]1O` (stereo partly drawn) [Compound No. 43c, 2α-(3-hydroxypropoxy)-1α,25-dihydroxyvitamin D3-26,23-lactam-N-(3,5-diethoxybenzyl)]: in assay [2], the “Antagonist specific activity … (%)” value is on record as 9.8% and the pIC50 is 7.02.

A word on the pIC50: it is the negative decadic logarithm of the IC50, by convention in mol/L.

Source of the values: patent US20110207944A1, “VITAMIN D3 LACTAM DERIVATIVE” (TEIJIN PHARMA LIMITED, priority 2008, published 2011).
